Experimental data from ChEMBL document CHEMBL1129706, “Z1046, a novel peripheral dopaminergic agent” (Bioorg Med Chem Lett, 1996).

Columns and labels:
[1] = biological target: D(2) dopamine receptor (Homo sapiens) (UniProt P14416); conditions: Oryctolagus cuniculus; Artery
Description: Activity at Dopamine receptor D2 in rabbit ear artery

[2] = biological target: Adrenergic receptor alpha-2 (Homo sapiens) (UniProt P08913+P18825+P18089); conditions: Cavia porcellus; Cardiac atrium
Description: Alpha-2 adrenergic receptor activity in guinea pig right atrium

[3] = biological target: T1, Adrenergic receptor alpha-1 (Homo sapiens, UniProt P35348+P25100+P35368); experiment: Activity at alpha-1 adrenergic receptor in rabbit aorta rings; assay type: tissue-based, Oryctolagus cuniculus; conditions: target entry is the homologue from another species
T1 sequence (P35348 whole entry): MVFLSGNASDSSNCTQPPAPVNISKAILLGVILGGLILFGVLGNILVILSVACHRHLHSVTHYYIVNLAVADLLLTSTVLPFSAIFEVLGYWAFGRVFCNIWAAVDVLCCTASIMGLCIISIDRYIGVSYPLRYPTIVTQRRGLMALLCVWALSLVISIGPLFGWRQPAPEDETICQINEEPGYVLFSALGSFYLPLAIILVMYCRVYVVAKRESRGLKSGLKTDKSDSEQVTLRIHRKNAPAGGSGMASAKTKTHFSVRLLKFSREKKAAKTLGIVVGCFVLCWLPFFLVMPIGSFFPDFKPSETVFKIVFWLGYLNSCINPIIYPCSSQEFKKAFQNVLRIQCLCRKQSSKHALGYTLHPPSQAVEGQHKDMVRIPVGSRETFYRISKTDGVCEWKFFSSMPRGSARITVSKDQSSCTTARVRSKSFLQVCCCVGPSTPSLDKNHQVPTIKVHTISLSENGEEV
T1 sequence (P25100 whole entry): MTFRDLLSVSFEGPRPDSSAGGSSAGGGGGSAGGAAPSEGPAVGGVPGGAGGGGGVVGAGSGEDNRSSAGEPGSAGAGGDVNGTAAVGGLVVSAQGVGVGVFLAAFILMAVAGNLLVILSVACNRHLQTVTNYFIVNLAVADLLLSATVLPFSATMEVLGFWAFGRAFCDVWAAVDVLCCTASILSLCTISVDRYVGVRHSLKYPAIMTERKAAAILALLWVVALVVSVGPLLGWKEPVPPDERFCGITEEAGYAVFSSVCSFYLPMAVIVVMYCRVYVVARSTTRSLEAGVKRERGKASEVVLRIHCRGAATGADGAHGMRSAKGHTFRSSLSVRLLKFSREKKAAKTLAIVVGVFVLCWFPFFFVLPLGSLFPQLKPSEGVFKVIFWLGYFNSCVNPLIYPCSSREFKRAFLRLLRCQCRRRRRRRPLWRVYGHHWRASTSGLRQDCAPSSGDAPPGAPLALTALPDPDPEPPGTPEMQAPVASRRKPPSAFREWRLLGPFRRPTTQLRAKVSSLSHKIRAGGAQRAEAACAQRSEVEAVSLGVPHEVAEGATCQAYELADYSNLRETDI
T1 sequence (P35368 whole entry): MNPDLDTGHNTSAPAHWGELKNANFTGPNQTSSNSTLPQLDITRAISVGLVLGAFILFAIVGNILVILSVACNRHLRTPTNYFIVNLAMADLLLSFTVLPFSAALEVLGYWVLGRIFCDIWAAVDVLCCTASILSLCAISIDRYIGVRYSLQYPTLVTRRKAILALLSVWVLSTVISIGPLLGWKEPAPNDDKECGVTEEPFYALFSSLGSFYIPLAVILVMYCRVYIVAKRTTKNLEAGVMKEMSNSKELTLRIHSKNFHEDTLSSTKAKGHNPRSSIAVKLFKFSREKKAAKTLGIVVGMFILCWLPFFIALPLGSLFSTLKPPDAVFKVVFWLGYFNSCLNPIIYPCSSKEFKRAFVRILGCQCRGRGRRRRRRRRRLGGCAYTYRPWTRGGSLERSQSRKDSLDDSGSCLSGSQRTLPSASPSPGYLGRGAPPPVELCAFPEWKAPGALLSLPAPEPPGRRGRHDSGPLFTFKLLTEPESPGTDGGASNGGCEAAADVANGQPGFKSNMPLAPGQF

[4] = biological target: D(1A) dopamine receptor (Homo sapiens) (UniProt P21728); conditions: Oryctolagus cuniculus
Sequence of D(1A) dopamine receptor (Homo sapiens) (P21728 whole entry): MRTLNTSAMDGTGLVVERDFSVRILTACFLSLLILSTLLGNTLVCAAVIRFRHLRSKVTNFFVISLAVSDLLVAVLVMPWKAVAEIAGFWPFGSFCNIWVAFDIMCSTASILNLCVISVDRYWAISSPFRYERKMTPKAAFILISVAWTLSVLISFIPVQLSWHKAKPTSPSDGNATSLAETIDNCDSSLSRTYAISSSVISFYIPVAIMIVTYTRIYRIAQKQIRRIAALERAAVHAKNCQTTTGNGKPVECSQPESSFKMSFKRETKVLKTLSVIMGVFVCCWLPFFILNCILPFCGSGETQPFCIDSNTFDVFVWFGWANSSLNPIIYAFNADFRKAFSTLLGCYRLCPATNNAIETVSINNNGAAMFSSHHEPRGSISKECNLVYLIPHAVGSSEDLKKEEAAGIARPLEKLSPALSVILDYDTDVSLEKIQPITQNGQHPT
Description: Dopamine receptor D1 like evaluated for mesenteric blood flow increase in anesthetized rabbit

[5] = biological target: Adrenergic receptor alpha-1 (Homo sapiens) (UniProt P35348+P25100+P35368); conditions: Oryctolagus cuniculus; Aorta

Sequence of D(2) dopamine receptor (Homo sapiens) (P14416 whole entry): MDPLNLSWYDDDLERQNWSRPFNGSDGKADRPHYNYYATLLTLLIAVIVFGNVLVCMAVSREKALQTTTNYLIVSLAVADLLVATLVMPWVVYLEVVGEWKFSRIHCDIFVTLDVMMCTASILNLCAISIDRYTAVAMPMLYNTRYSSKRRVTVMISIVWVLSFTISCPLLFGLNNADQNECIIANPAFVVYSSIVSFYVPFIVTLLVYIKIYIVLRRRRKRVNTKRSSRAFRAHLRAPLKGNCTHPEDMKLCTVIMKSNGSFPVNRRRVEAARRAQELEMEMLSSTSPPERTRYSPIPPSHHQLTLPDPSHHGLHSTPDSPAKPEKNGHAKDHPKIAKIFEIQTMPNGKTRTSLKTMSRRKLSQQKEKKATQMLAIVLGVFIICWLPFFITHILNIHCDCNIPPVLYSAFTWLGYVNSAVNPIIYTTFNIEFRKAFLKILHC

SMILES	pD2 [1]	pD2 [2]	pA2 [3]	ED20 [4] [nM/kg]	pD2 [5]
CCCN(CCCCCCNCCOc1ccccc1OC)[C@H]1CCc2c(ccc(O)c2O)C1	9	6.7	6.5	13	–
CCCN(CCCCCCN(C)CCOc1ccccc1OC)[C@H]1CCc2c(ccc(O)c2O)C1	8.5	6.9	< 5	34	–
CCCN(CCCCCCN(CCC)[C@H]1CCc2c(ccc(O)c2O)C1)CCOc1ccccc1OC	7.4	6	< 5	407	–
CCCN(CCCCCCNCCOc1ccccc1OC)CCc1ccc(O)c(O)c1	7.56	< 5	6.5	> 3000	–
CCCN(CCCCCCNCCOc1ccccc1OC)[C@@H]1CCc2c(ccc(O)c2O)C1	6.5	< 5	6.9	1050	–
CNC[C@H](O)c1cccc(O)c1	–	–	–	–	6.5
CCCN(CCCCCNCCOc1ccccc1OC)[C@H]1CCc2c(ccc(O)c2O)C1	8.7	6.5	6.5	107	–
COc1ccccc1OCCNCCCCCCN[C@H]1CCc2c(ccc(O)c2O)C1	6.5	< 5	7.1	> 3000	–
CCCN(CCCCCCCNCCOc1ccccc1OC)[C@H]1CCc2c(ccc(O)c2O)C1	8.4	5.7	6.8	35	–
CCCCN(CCCCCCNCCOc1ccccc1OC)[C@H]1CCc2c(ccc(O)c2O)C1	7.5	< 5	6.6	60	–
